Experimental data published in US9708247B2, “Modulators of the eIF2alpha pathway” (The Regents of the University of California, priority 2013, dated 2017).
Where two headings read alike, the source gives them in different places.

Key:
ATF4 luciferase reporter = ATF4 luciferase reporter assay (Cell-luc) in HEK293T cells; assay type: cell-based, human
Description: FIGS. 1A-1C. […]
To identify inhibitors of PERK signaling, we engineered a reporter that allows monitoring of PERK activation in living cells. To this end, we constructed a retroviral vector containing the open-reading frame of firefly luciferase fused to the 5′UTR of ATF4 mRNA (FIG. 1A), which contains two short open-reading frames (uORFs) that control ATF4 translation in a stress-dependent manner. After infection, we established a HEK293T cell line harboring the stably integrated reporter. […] This format was used to screen 106,281 compounds covering a wide chemical space. We identified 460 hits (0.43%) (FIG. 1C), which were further validated in an 8-point dose-response assay using the same reporter. We further triaged the compounds by discarding inhibitors that also affected the IRE1 branch of the UPR using an XBP1-luciferase splicing reporter. […] We next used an orthogonal secondary screen that employed a different reporter (bi-cistronic ATF4-dGFPIRES-mCherry) stably integrated into a different cell line (U20S cells). The read-out of this latter screen was microscopy-based, which allowed us to simultaneously assess acute toxicity by cell counting, further reducing the number of viable hits to 77. As a tertiary screen, we tested compounds for their ability to inhibit ER stress-elicited induction of endogenous ATF4 by Western blot analysis. Twenty-eight compounds passed this test and were analyzed further.
ATF4 reporters were constructed by fusing the human full-length ATF4 5′-UTR (NCBI Accession BC022088.2) in front of the firefly luciferase (FLuc) or a destabilized eGFP (dEGFP) coding sequences lacking the initiator methionine.
The ATF4-FLuc reporter was generated by cloning a PCR-product containing the ATF4 full-length 5′-UTR (from +1 position a the transcription start site down to one nucleotide after the terminator codon of the second uORF) flanked by KpnI/XhoI and BglII sites at the 5′ and 3′ ends, respectively, into the KpnI-BglII sites of pCAX-F-XBP1-Luc. The resulting construct, pCAX-ATF4-FLuc, was then digested with BamHI, blunted with T4 DNA polymerase, and then digested with XhoI. The resulting fragment was then subcloned into the retroviral expression vector pLPCX (Clontech) after digesting it with HindIII, blunting with T4 DNA polymerase and then digesting with XhoI to generate pLPCX-ATF4-FLuc (DAA-312). DAA-312 was used to produce recombinant retroviruses using standard methods and the resulting viral supernatant was used to transduce HEK293T cells, which were then subsequently selected with puromycin to generate a stable cell line employed in the primary screen.
HEK293T cells carrying the ATF4 luciferase reporter were plated on poly-lysine coated 384 well plates (Greiner) at 30,000 cells per well. […] Luminescence was measured using One Glo (Promega) as specified by the manufacturer. […] Thus, these were considered unique to the PERK branch and were cherry-picked for further analysis.

[1] = system: mouse embryonic fibroblasts (MEFs); experiment: Polysome gradient analysis in MEFs; assay type: cell-based
Protocol: (§1) Mouse Embryonic Fibroblasts (MEFs) or TREx-293 cells expressing eIF2α(S51D) were seeded on 150 mm plates and allowed to grow to 80% confluence. Cells were then induced with 25 nM doxycycline for 14 h and subsequently treated with the appropriate compounds for the indicated times. 100 μg/ml of cycloheximide was added to the cells for 1 min before lysis. Cells were washed twice with PBS supplemented with 100 μg/ml cycloheximide and subsequently lysed in 20 mM Tris pH 7.4, 200 mM NaCl, 15 mM MgCl, 1 mM DTT, 8% Glycerol, 100 μg/ml cycloheximide, 1% Triton X-100 and EDTA-free protease inhibitor tablets (Roche). Cells were scraped, collected, triturated with a 25^7/8 gauge needle, and the homogenate was centrifuged for 10 min at 10,000×g. The supernatant was loaded on a 10-50% sucrose gradient and sedimented in a SW40 rotor at 150,000×g for 2.4 h. The gradients were fractionated using a piston gradient fractionator (BioComp) and UV absorbance at 254 nm was monitored using a UV-Monitor (BioRad).

eIF2α (S51D) = experiment: Polysome gradient analysis in HEK293Trex cells expressing eIF2α(S51D); assay type: cell-based, human; settings: 25 nM doxycycline 14 h, 200 nM ISRIB
Protocol: as §1, with “The coding sequences of wild type mouse eIF2α, phosphomimetic (S51D) mutant was amplified by PCR from a mammalian expression vector (kind gift of David Ron). BamHI and EcoRI recognition sites were engineered into the primers. In addition a Kozak consensus sequence and a N-terminal FLAG epitope tag were engineered in the forward primer. […]. Mouse” for “Mouse”

IL-6 = experiment: Serum IL-6 after surgery (ELISA); assay type: in vivo, mouse; settings: mice, perioperative administration, 24 h after surgery
Description: FIG. 26. Experimental design for measuring postsurgical cognitive dysfunction and effects of ISRIB on cognitive function; measurement of memory is a behavioral test using trace fear conditioning (TFC), which aims to establish a permanent memory in animals by using sensorial information; associative learning is presented with a neutral conditioning stimulus, paired with an aversive unconditioning stimulus (e.g. shock); freezing by the animal corresponds to the ability of the animal to retain memory from the context in which it has been trained. Separate cohorts of animals were used to assess inflammatory status 24 h after surgery. Downwards arrows represent injection points.
FIG. 28. […] Levels were measured using an enzyme-linked immunosorbent kit.

In the case of `O=C(COc1ccc(Cl)cc1)NC1CCC(NC(=O)COc2ccc(Cl)cc2)CC1` (stereo not drawn) [ISRIB], the IC50 (ATF4 luciferase reporter; cultured HEK293T cells, 2 μg/ml tunicamycin, 7 h, synthesized isomers, read-out: IC50, inhibition of the ATF4-luciferase reporter) is reported as 5 nM, the IC50 (ATF4 luciferase reporter; screening library sample, likely a mixture of the two stereoisomers, read-out: IC50 of the library compound) is reported as 40 nM and the “translational attenuation by Torin-1 (CAP-dependent initiation)” value ([1]; 750 nM torin-1, 200 nM ISRIB, 2 h) is reported as “did not reverse the effect of Torin-1 on translation”. The “ER stress-induced increase in 80S monosomes at the expense of polyribosomes” value ([1]; 2 μg/ml tunicamycin, 200 nM ISRIB, 1 h) was “reversed (at least partially)”, the “translational attenuation by eIF2α(S51D) expression” value (eIF2α (S51D)) was “rescued translation” and the “serum IL-6 increase after surgery” value (IL-6) was “abrogated the increase in IL6”.
